Values of other authors in patent publication US6475518B1, “Methods and compositions for treatment of disorders associated with chlamydia and similar bacterial infection” (priority 1998, dated 2002).

How the values were obtained:
C. pneumoniae [1] = details: Gurfinkel E, et al., Lancet 1997; limited numbers, no prolonged follow-up yet
C. pneumoniae [2] = details: Gupta S, et al., Circulation 1997

CC[C@H]1OC(=O)[C@H](C)[C@@H](O[C@H]2C[C@@](C)(OC)[C@@H](O)[C@H](C)O2)[C@H](C)[C@@H](O[C@@H]2O[C@H](C)C[C@H](N(C)C)[C@H]2O)[C@](C)(O)C[C@@H](C)/C(=N\OCOCCOC)[C@H](C)[C@@H](O)[C@]1(C)O [roxithromycin]
Clinical benefit of sole therapy (C. pneumoniae [1]): a benefit was described

CC[C@H]1OC(=O)[C@H](C)[C@@H](O[C@H]2C[C@@](C)(OC)[C@@H](O)[C@H](C)O2)[C@H](C)[C@@H](O[C@@H]2O[C@H](C)C[C@H](N(C)C)[C@H]2O)[C@](C)(O)C[C@@H](C)CN(C)[C@H](C)[C@@H](O)[C@]1(C)O [azithromycin]
Clinical benefit of monotherapy (C. pneumoniae [2]): the benefit was not sustained after initial therapy
